Experiment [1] addresses T1, D(4) dopamine receptor (Homo sapiens) (UniProt P21917).
T1 sequence (whole entry): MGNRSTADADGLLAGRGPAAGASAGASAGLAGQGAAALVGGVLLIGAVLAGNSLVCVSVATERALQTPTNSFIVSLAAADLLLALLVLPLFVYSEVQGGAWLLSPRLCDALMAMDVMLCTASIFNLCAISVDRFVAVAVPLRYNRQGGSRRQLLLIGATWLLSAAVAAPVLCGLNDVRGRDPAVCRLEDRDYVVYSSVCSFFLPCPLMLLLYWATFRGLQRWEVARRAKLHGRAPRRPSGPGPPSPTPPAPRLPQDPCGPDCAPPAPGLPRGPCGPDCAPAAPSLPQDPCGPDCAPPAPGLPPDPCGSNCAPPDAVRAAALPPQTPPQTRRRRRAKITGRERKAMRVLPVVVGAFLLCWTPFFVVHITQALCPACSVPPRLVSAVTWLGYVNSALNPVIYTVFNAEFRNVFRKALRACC
The experiment is described as follows: Antagonist activity at dopamine D4.2 receptor assessed as inhibition of dopamine-induced effect at 5 uM. Type of experiment: functional.

Experiment [2] addresses D(2) dopamine receptor (Homo sapiens) (UniProt P14416). The experiment is described as follows: Displacement of [3H]spiperone from human cloned dopamine D2L receptor at 1 uM. (In general: Loss of bound radioactivity is the signal in a displacement assay; it reports binding, not function.)
For experiment [3], the target named is 5-hydroxytryptamine receptor 2A (Rattus norvegicus, UniProt P14842). As to the kind of experiment: Displacement of [3H]ketanserin from rat 5HT2A receptor.
5-hydroxytryptamine receptor 2A, sequence (P14842 whole entry): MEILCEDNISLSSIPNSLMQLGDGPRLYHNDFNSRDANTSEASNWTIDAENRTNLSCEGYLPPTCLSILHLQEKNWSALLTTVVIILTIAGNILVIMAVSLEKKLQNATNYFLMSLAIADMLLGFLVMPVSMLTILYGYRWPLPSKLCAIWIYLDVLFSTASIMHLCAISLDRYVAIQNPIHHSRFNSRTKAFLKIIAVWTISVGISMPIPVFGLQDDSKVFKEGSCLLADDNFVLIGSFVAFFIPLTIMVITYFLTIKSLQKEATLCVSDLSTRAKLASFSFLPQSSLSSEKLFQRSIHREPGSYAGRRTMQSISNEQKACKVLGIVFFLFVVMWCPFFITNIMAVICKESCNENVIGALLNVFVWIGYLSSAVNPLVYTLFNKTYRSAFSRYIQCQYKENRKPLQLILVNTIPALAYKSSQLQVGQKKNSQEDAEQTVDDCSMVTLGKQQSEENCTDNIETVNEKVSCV
Another experiment addresses T2, D(4) dopamine receptor (Homo sapiens, UniProt P21917).
T2 sequence (P21917 whole entry): T1 sequence (whole entry)
The experiment is described as follows: Displacement of [3H]nemonapride from human cloned dopamine D4.2 receptor.

The target of experiment [4] is 5-hydroxytryptamine receptor 2A (Homo sapiens) (UniProt P28223). As to the kind of experiment: Antagonist activity at 5HT2A assessed as inhibition of serotonin-induced effect at 5 uM. Type of experiment: functional.
5-hydroxytryptamine receptor 2A (Homo sapiens), sequence (P28223 whole entry): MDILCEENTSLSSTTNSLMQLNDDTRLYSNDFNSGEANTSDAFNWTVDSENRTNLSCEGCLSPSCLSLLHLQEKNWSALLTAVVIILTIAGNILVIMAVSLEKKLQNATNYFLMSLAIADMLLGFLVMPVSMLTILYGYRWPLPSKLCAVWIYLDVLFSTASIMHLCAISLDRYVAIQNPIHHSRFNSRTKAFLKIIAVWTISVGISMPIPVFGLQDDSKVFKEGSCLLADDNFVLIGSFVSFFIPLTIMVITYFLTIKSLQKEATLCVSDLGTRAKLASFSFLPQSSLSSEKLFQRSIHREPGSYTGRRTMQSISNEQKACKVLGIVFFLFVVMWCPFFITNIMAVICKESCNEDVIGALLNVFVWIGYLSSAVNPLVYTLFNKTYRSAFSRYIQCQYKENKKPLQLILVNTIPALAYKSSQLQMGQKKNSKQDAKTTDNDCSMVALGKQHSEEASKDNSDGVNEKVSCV
In experiment [5] the target is 5-hydroxytryptamine receptor 2A (Rattus norvegicus) (UniProt P14842). As to the kind of experiment: Displacement of [3H]ketanserin from rat 5HT2A receptor at 1 uM.
5-hydroxytryptamine receptor 2A (Rattus norvegicus), sequence (P14842 whole entry): as the sequence (P14842 whole entry) above
Experiment [6] addresses T1, D(4) dopamine receptor (Homo sapiens). As to the kind of experiment: Displacement of [3H]nemonapride from human cloned dopamine D4.2 receptor at 1 uM.

Each structure is given as a SMILES string. Active and inactive are the calls of the source. The rule behind the calls is not given here.

D(2) dopamine receptor (Homo sapiens), sequence (P14416 whole entry): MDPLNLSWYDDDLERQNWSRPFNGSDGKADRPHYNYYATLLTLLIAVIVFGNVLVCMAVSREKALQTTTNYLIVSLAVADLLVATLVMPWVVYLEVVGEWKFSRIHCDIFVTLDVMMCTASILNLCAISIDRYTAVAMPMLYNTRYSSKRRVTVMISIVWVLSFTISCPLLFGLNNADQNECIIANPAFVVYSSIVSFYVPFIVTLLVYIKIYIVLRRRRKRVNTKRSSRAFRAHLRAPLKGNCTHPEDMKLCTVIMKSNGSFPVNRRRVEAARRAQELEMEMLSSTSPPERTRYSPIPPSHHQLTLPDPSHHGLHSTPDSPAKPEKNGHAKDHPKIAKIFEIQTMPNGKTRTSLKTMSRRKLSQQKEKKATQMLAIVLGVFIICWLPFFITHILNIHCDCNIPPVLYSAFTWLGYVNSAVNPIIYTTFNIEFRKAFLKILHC

Regarding `COc1cccc(CN2CCC(NC(=O)c3ccc4ccccc4c3)CC2)c1`, the result in experiment [1] and in experiment [4] was Active. This molecule displayed an inhibition in experiment [2] of 0%. In addition, the figures for the Ki (in experiment [3]; at D(4) dopamine receptor) were 158 nM and 16 nM, respectively.

On to `O=C(NC1CCN(Cc2ccc(Cl)cc2)CC1)c1ccc2ccccc2c1`, for which the outcome in experiment [1] and in experiment [4] was Active. The molecule also gave an inhibition in experiment [2] of 15%. Further, the Ki in experiment [3] was 242 nM; at D(4) dopamine receptor, 37 nM.

As for `Cc1cccc(CN2CCC(NC(=O)c3cccc4ccccc34)CC2)c1`, in experiment [1], the outcome was Active. The inhibition in experiment [5] was found to be 38%; in experiment [2], 11%. The molecule also showed a Ki at D(4) dopamine receptor of 77 nM.

Turning to `Cc1ccc(CN2CCC(NC(=O)c3ccc4ccccc4c3)CC2)cc1`, the outcome in experiment [1] and in experiment [4] was Active. The molecule further registered an inhibition in experiment [2] of 42%. The Ki was 222 nM in experiment [3] and 21 nM on D(4) dopamine receptor.

Consider `Cc1ccccc1CN1CCC(NC(=O)c2ccc3ccccc3c2)CC1`, for which the outcome in experiment [1] and in experiment [4] was Active. This molecule also showed an inhibition in experiment [2] of 6%. Moreover, the results for the Ki (in experiment [3]; at D(4) dopamine receptor) were 175 nM and 26 nM, respectively.

On to `O=C(NC1CCN(Cc2ccncc2)CC1)c1ccc2ccccc2c1`, for which the values for the inhibition in experiment [2] and in experiment [6] were 5% and 32%, respectively. Further, the Ki in experiment [3] turned out to be 695 nM.

Turning to `O=C(NC1CCN(Cc2ccccc2Cl)CC1)c1ccc2ccccc2c1`, the inhibition in experiment [2] was 0%; in experiment [6] it was 48%. The molecule also had a Ki in experiment [3] of 133 nM. In experiment [4], the outcome was Active.

Consider `O=C(NC1CCN(Cc2ccccc2)CC1)c1cccc2ccccc12`, for which the result in experiment [1] and in experiment [4] was Active.

Take `O=C(NC1CCN(Cc2ccc(C(F)(F)F)cc2)CC1)c1cccc2ccccc12`: the result in experiment [1] was Active. Besides, the results for the inhibition in experiment [5] and in experiment [2] were 32% and 0%, respectively. At D(4) dopamine receptor, this molecule came in with a Ki of 96 nM.

In the case of `O=C(NC1CCN(Cc2cccc(Cl)c2)CC1)c1ccc2ccccc2c1`, the outcome in experiment [1] and in experiment [4] was Active. The same molecule showed an inhibition in experiment [2] of 29%. In addition, the Ki in experiment [3] worked out at 133 nM; at D(4) dopamine receptor it was 54 nM.

On to `O=C(NC1CCN(Cc2c(F)c(F)c(F)c(F)c2F)CC1)c1ccc2ccccc2c1`, for which the inhibition in experiment [5] stood at 4%; in experiment [2], 0%; in experiment [6] it was 0%.

As to `O=C(NC1CCN(Cc2cccnc2)CC1)c1ccc2ccccc2c1`, the inhibition in experiment [2] was 4%. Further, the Ki stood at 524 nM in experiment [3] and 326 nM on D(4) dopamine receptor.

Take `O=C(NC1CCN(Cc2ccccc2)CC1)c1ccc2ccccc2c1`: the outcome in experiment [1] and in experiment [4] was Active.

As for `O=C(NC1CCN(Cc2ccc(Br)cc2)CC1)c1ccc2ccccc2c1`, the result in experiment [1] and in experiment [4] was Active. For the same molecule, the Ki in experiment [3] is 223 nM; at D(4) dopamine receptor, 34 nM.

Take `O=C(NC1CCN(Cc2ccc([N+](=O)[O-])cc2)CC1)c1ccc2ccccc2c1`: the result in experiment [1] and in experiment [4] was Active. The same molecule registered an inhibition in experiment [2] of 0%. Also, the inhibition constant (Ki) in experiment [3] is 278 nM; on D(4) dopamine receptor, 181 nM.

As to `Cc1ccccc1CN1CCC(NC(=O)c2cccc3ccccc23)CC1`, the outcome in experiment [1] was Active. For the same molecule, the inhibition in experiment [5] is 26%; in experiment [2], 9%. On D(4) dopamine receptor, the Ki was found to be 155 nM.

For the molecule `O=C(NC1CCN(Cc2cccc(Br)c2)CC1)c1cccc2ccccc12`, the outcome in experiment [1] and in experiment [4] was Active. The Ki in experiment [3] came out at 462 nM; at D(4) dopamine receptor it was 66 nM.

On to `O=C(NC1CCN(Cc2ccc(Br)cc2)CC1)c1cccc2ccccc12`, for which the outcome in experiment [1] was Active. In addition, the inhibition in experiment [2] is 4%. Moreover, on D(4) dopamine receptor, the Ki was 44 nM.

Consider `O=C(NC1CCN(Cc2ccc(C(F)(F)F)cc2)CC1)c1ccc2ccccc2c1`, for which the inhibition in experiment [5] turned out to be 36%; in experiment [2], 0%. The molecule further returned a Ki at D(4) dopamine receptor of 84 nM.

For `O=C(NC1CCN(Cc2ccccc2Cl)CC1)c1cccc2ccccc12`, in experiment [1], the result was Active. The same molecule gave a Ki on D(4) dopamine receptor of 329 nM.

For the molecule `O=C(NC1CCN(Cc2ccccc2Br)CC1)c1ccc2ccccc2c1`, the figures for the inhibition in experiment [5], in experiment [2] and in experiment [6] were 47%, 0% and 31%, respectively.

Take `COc1ccc(CN2CCC(NC(=O)c3cccc4ccccc34)CC2)cc1`: in experiment [1], the result was Active. The molecule further displayed an inhibition in experiment [2] of 3%. The same molecule yielded a Ki at D(4) dopamine receptor of 223 nM.

For the molecule `O=C(NC1CCN(Cc2ccc(Cl)cc2)CC1)c1cccc2ccccc12`, the result in experiment [1] was Active. In addition, the inhibition in experiment [5] turned out to be 23%; in experiment [2], 0%. Also, the affinity at D(4) dopamine receptor corresponds to a Ki of 43 nM.

With `O=C(NC1CCN(Cc2c(F)c(F)c(F)c(F)c2F)CC1)c1cccc2ccccc12`, the inhibition in experiment [2] and in experiment [6] was 0% throughout. Further, the Ki in experiment [3] was determined as 228 nM.

With `O=C(NC1CCN(Cc2ccccc2Br)CC1)c1cccc2ccccc12`, the inhibition in experiment [2] amounted to 8%; in experiment [6], 35%.

Consider `COc1ccc(CN2CCC(NC(=O)c3ccc4ccccc4c3)CC2)cc1`, for which the outcome in experiment [1] and in experiment [4] was Active. The molecule further returned an inhibition in experiment [2] of 18%. For the same molecule, the values for the Ki (in experiment [3]; on D(4) dopamine receptor) were 151 nM and 31 nM, respectively.

For `O=C(NC1CCN(Cc2ccc([N+](=O)[O-])cc2)CC1)c1cccc2ccccc12`, the inhibition stood at 20% in experiment [5], 0% in experiment [2] and 42% in experiment [6].

Take `Cc1cccc(CN2CCC(NC(=O)c3ccc4ccccc4c3)CC2)c1`: the outcome in experiment [1] and in experiment [4] was Active. Also, the inhibition in experiment [2] amounted to 20%. Moreover, the Ki was 87 nM in experiment [3] and 11 nM at D(4) dopamine receptor.

As to `O=C(NC1CCN(Cc2cccc(Cl)c2)CC1)c1cccc2ccccc12`, the outcome in experiment [1] was Active. The inhibition in experiment [5] worked out at 49%; in experiment [2], 0%. For the same molecule, the Ki at D(4) dopamine receptor came to 116 nM.

Take `O=C(NC1CCN(Cc2cccc(Br)c2)CC1)c1ccc2ccccc2c1`: the outcome in experiment [1] and in experiment [4] was Active. For the same molecule, the Ki in experiment [3] amounted to 53 nM; at D(4) dopamine receptor it was 36 nM.

The molecule `O=C(NC1CCN(Cc2ccccn2)CC1)c1ccc2ccccc2c1` showed an inhibition in experiment [2] of 5%. Moreover, the results for the Ki (in experiment [3]; on D(4) dopamine receptor) were 545 nM and 299 nM, respectively.

Take `Cc1ccc(CN2CCC(NC(=O)c3cccc4ccccc34)CC2)cc1`: the outcome in experiment [1] was Active. Further, the inhibition in experiment [5] is 33%; in experiment [2], 13%. This molecule gave a Ki on D(4) dopamine receptor of 69 nM.

On to `O=C(NC1CCN(Cc2cccc(C(F)(F)F)c2)CC1)c1ccc2ccccc2c1`, for which the outcome in experiment [1] was Active. In addition, the inhibition amounted to 15% in experiment [5] and 9% in experiment [2]. For the same molecule, at D(4) dopamine receptor, the inhibition constant Ki stood at 103 nM.

Regarding `COc1cccc(CN2CCC(NC(=O)c3cccc4ccccc34)CC2)c1`, the result in experiment [1] was Active. Besides, the inhibition stood at 23% in experiment [5] and 0% in experiment [2]. This molecule yielded a Ki at D(4) dopamine receptor of 168 nM.

As for `O=C(NC1CCN(Cc2cccc(C(F)(F)F)c2)CC1)c1cccc2ccccc12`, the outcome in experiment [1] was Active. Besides, the inhibition in experiment [2] came to 0%. On D(4) dopamine receptor, this molecule displayed a Ki of 119 nM.

Usually inhibition stands for the percentage by which the read-out fell short of the control. Read a low inhibition as a weak effect. By Ki is commonly meant the equilibrium dissociation constant of an inhibitor or competing ligand from its target. A low value points to tighter binding.

Source of the values: ChEMBL document CHEMBL1146384, “Synthesis and in vitro binding studies of substituted piperidine naphthamides. Part II: Influence of the substitution on the benzyl moiety on the affinity for D2L, D4.2, and 5-HT2A receptors” (Bioorg Med Chem Lett, 2007).
